The record followed here is publication PMC4669414 (Scientific Reports, 2015).

As usually defined, the IC50 is the concentration at which inhibition is half-maximal.

The test system of series [1] is PC9/G cells. The series can be described thus: MTT cell growth inhibition assay in PC9/G cells. The following applies: 72 h; for effect on cell viability when combined with Gef + Res treatment: 3-MA 5 mM or DEVD 10 nM with Gef 1 μM + Res 40 μM. The protocol: Cell viability was measured by MTT assay. Data are shown as means ± SD of three independent experiments. […] Then, cell viability, apoptosis, autophagy and senescence were detected as described in the Materials and methods. […] Res: Resveratrol; 3-MA: 3-methyladenine; DEVD: Ac-DEVD-CHO. The antiproliferative effects of the treatments were evaluated using the MTT assay. Cells were seeded at a density of 4 × 10^3 cells/well in 96-well plates. […] Then, MTT assays were performed as described previously. […] The different drug doses were combined using constant ratios of the IC50 values calculated from the previous cytotoxicity tests. […] The effects of different drug combinations were evaluated using the CompuSyn software (Biosoft, Ferguson, MO, USA) based on the median effect model of Chou and Talay[43].

In series [2] the test system is PC9/G cells. Nature of the series: SA-β-gal senescence assay. It counts as cell-based, human. The following applies: Gef 1 μM alone or combined with Res 40 μM, 72 h. How it is done:
(§1) Figure 4 Res enhanced Gef-induced apoptosis, autophagy, G2/M phase cell cycle arrest, and senescence in PC9/G cells. […] (A) Morphological changes in PC9/G cells including nuclei condensation and fragmentation (arrow) were observed by DAPI staining under a fluorescence microscope. (B) Annexin V-FITC/PI staining assay of PC9/G cells was analysed by flow cytometry. (C) Autophagy was detected by MDC staining, and (D) fluorescence intensity was detected by flow cytometry. (E) Cells were stained with PI, and then the DNA content was analysed by flow cytometry. Sub-G1, G1, S and G2/M indicate different cell cycle phases. (F) Cells were stained for SA-β-Gal activity. The percentage of senescent cells in PC9/G cells was measured. Magnification: 200× .
Cell senescence was measured following the manufacturer’s protocol of the SA-β-gal assay kit. According to the protocol, cells were fixed with 2% paraformaldehyde for 15 min at room temperature and then incubated with fresh SA-β-gal stain solution in the dark at 37 °C overnight. SA-β-gal-positive cells were quantified by counting stained and unstained cells, and the result is presented as the ratio of SA-β-gal-positive cells over the total cells counted.

Series [3] relates to PC9/G cells. Nature of the series: Annexin V-FITC/PI apoptosis assay by flow cytometry. It counts as cell-based, human. The note with it: Gef 1 μM alone or combined with Res 40 μM, 72 h. The protocol: as §1
For apoptosis analysis, cells were washed twice with 1× binding buffer then labelled with Annexin V and propidium iodide (PI) following the manufacturer’s instructions. The Apoptosis Analysis Kit was ordered from Tianjin Sungene Biotech (Tianjing, China). For cell cycle analysis, cells were washed twice with ice-cold PBS and fixed with 70% ethanol at −20 °C overnight. […] The analysis of the samples was performed by flow cytometry (Becton-Dickinson, San Jose, CA, USA), and the acquired data were analysed with the CellQuest software (BD Biosciences).

The test system of another series is H1975 cells. Nature of the series: MTT cell growth inhibition assay in H1975 cells. It counts as cell-based. The note with it: Homo sapiens, NCI-H1975. The protocol: (§2) The antiproliferative effects of the treatments were evaluated using the MTT assay. Cells were seeded at a density of 4 × 10^3 cells/well in 96-well plates. […] Then, MTT assays were performed as described previously.
(§3) are shown as means ± SD of three independent experiments.

For the next series, the system named is PC9 cells. The series can be described thus: MTT cell growth inhibition assay in PC9 cells. In kind it is cell-based. The note with it: Homo sapiens, PC-9, single drug, 72 h. How it is done:
Then, MTT assays were performed as described previously.

The subject of a further series is A549 cells. The series can be described thus: MTT cell growth inhibition assay in A549 cells. It counts as cell-based. The following applies: Homo sapiens. How it is done: as §2, §3
For a further series, the system named is H1299 cells. The series can be described thus: MTT cell growth inhibition assay in H1299 cells. It counts as cell-based. The note with it: Homo sapiens, NCI-H1299. The protocol: as §2, §3
A further series has as its system HCC827 cells. Nature of the series: MTT cell growth inhibition assay in HCC827 cells. It counts as cell-based. The following applies: Homo sapiens. The protocol:
as §2, §3

The next series has as its system HCC827/G cells. Nature of the series: MTT cell growth inhibition assay in HCC827/G cells. The following applies: Homo sapiens. In kind it is cell-based. How it is done: as §2, §3

Regarding `Cn1cnc(N)c2ncnc1-2` [3-MA, 3-methyladenine], the “effect on cell viability when combined with Gef + Res treatment” value in the series on PC9/G cells [1] (PC9/G cells) is reported as “significantly potentiated the reduction of cell viability”.

In the case of `COc1cc2ncnc(Nc3ccc(F)c(Cl)c3)c2cc1OCCCN1CCOCC1` [Gef, Gefitinib], in the series with PC9/G cells [2], the “proportion of SA-β-gal-positive cells” value is recorded as 11.4 ± 1.6%. Further, in the series with PC9/G cells [3], the apoptosis rate was found to be 9.77 ± 2.96.

Take `Oc1ccc(/C=C/c2cc(O)cc(O)c2)cc1` [Res, Resveratrol]: the IC50 with H1975 cells was 74.6 ± 2.03 µM; in the series with PC9 cells it was 82.5 ± 10 µM; with A549 cells, 72.4 ± 2.76 µM; in the series with H1299 cells it was 88.8 ± 1.62 µM; in the series on PC9/G cells [1] (Homo sapiens), 33.9 ± 1.6 µM; in the series on HCC827 cells, 73.4 ± 4.32 µM. In addition, the IC50 with HCC827/G cells was 42.9 ± 3.54 µM.

In the case of Ac-DEVD-CHO, the “toxic effect on cell viability, alone” value in the series on PC9/G cells [1] (PC9/G cells, 3-MA 5 mM or DEVD 10 nM alone) is recorded as “no toxic effects”. Moreover, the “effect on cell viability when combined with Gef + Res treatment” value in the series on PC9/G cells [1] (PC9/G cells) is “no effect”.
